Experimental data from patent publication US9328099B2, “Cyanomethylpyrazole carboxamides as janus kinase inhibitors” (Merck Sharp & Dohme Corp., priority 2011, dated 2016).

How the values were obtained:
[1] = molecular target: JAK1 (Homo sapiens (Human), UniProt P23458); test: Jak Biochemical HTRF Assay, JAK1; conditions: HTRF biochemical assay, GST-tagged catalytic domain; top concentration tested […]; read-out: JAK1 IC50
Description: (§1) Jak Biochemical HTRF Assay Protocol
(§2) Subsequent reagent additions employed an Agilent Bravo.

[2] = molecular target: JAK2 (Homo sapiens (Human), UniProt O60674); test: Jak Biochemical HTRF Assay, JAK2; conditions: HTRF biochemical assay, GST-tagged catalytic domain; top concentration tested […]
Chain of JAK2 (O60674 849-1124): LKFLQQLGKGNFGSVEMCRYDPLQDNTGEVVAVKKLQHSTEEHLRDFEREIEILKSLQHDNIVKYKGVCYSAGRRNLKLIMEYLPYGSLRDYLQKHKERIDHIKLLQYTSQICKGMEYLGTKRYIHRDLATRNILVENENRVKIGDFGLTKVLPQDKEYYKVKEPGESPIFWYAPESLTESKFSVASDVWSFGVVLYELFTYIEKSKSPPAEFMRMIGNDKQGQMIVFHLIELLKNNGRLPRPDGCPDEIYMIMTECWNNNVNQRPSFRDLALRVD
Description: as §1, §2

Chain of JAK1 (P23458 875-1153): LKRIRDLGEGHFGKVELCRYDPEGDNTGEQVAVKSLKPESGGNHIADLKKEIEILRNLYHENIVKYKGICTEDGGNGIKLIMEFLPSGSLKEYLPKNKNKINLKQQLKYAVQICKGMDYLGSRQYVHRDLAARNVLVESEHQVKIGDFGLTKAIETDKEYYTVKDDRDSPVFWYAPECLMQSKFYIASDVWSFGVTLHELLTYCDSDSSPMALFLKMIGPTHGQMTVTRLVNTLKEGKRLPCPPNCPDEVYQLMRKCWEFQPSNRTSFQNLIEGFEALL

| IC50 [1] | IC50 [2] | SMILES |
| --- | --- | --- |
| 6 nM | 176 nM | N#CCC1(n2cc(C(N)=O)c(Nc3ccccc3)n2)CCN(C(=O)c2cc3ccccc3[nH]2)CC1 [Example 34-22, 1-[4-(cyanomethyl)-1-(1H-indol-2-ylcarbonyl)piperidin-4-yl]-3-(phenylamino)-1H-pyrazole-4-carboxamide] |
| 11 nM | 234 nM | CC(C)(O)C(=O)N1CCC(CC#N)(n2cc(C(N)=O)c(Nc3ccnc(F)c3)n2)CC1 [Example 34-43, 1-[4-(cyanomethyl)-1-(2-hydroxy-2-methylpropanoyl)piperidin-4-yl]-3-[(2-fluoropyridin-4-yl)amino]-1H-pyrazole-4-carboxamide] |
| 0.04 nM | 3 nM | N#CCC1(n2cc(C(N)=O)c(Nc3ccc(S(=O)(=O)C(F)F)cc3)n2)CCC(NCC(F)F)CC1 (stereo not drawn) [Example 40-84, Cis or trans 1-{1-(cyanomethyl)-4-[(2,2-difluoroethyl)amino]cyclohexyl}-3-({4-[(difluoromethyl)sulfonyl]phenyl}amino)-1H-pyrazole-4-carboxamide] |
| 0.1 nM | 0.5 nM | N#CCC1(n2cc(C(N)=O)c(Nc3ccc(S(=O)(=O)C(F)(F)F)cc3)n2)CCN(C(=O)Nc2ccc(C#N)cc2)CC1 [Example 38-45, 4-(4-carbamoyl-3-(4-(trifluoromethylsulfonyl)phenylamino)-1H-pyrazol-1-yl)-4-(cyanomethyl)-N-(4-cyanophenyl)piperidine-1-carboxamide] |
| 11 nM | 318 nM | CN1CCC(COC(=O)N2CCC(CC#N)(n3cc(C(N)=O)c(Nc4ccccc4)n3)CC2)CC1 [Example 30-44, (1-methylpiperidin-4-yl)methyl 4-[4-carbamoyl-3-(phenylamino)-1H-pyrazol-1-yl]-4-(cyanomethyl)piperidine-1-carboxylate] |
| 0.2 nM | 9 nM | N#CCC1(n2cc(C(N)=O)c(Nc3ccc(F)cc3)n2)CCC(N2CCC(F)(F)CC2)CC1 (stereo not drawn) [Example 40-70, Cis or trans 1-[1-(cyanomethyl)-4-(4,4-difluoropiperidin-1-yl)cyclohexyl]-3-[(4-fluorophenyl)amino]-1H-pyrazole-4-carboxamide] |

The next lines start with the molecule.

| SMILES | IC50 [1] | IC50 [2] |
| --- | --- | --- |
| N#CCC1(n2cc(C(N)=O)c(Nc3ccc(-c4cn[nH]c4)nc3)n2)CCN(C(=O)OCC(F)(F)F)CC1 [Example 11-2, 2,2,2-trifluoroethyl 4-(4-carbamoyl-3-{[6-(1H-pyrazol-4-yl)pyridin-3-yl]amino}-1H-pyrazol-1-yl)-4-(cyanomethyl)piperidine-1-carboxylate] | 0.01 nM | 0.6 nM |
| COC(=O)c1ccccc1CN1CCC(CC#N)(n2cc(C(N)=O)c(Nc3ccccc3)n2)CC1 [Example 21-29, methyl 2-({4-[4-carbamoyl-3-(phenylamino)-1H-pyrazol-1-yl]-4-(cyanomethyl)piperidin-1-yl}methyl)benzoate] | 21 nM | 400 nM |
| N#CCC1(n2cc(C(N)=O)c(Nc3ccc(S(=O)(=O)C(F)(F)F)cc3)n2)CCN(C(=O)OCC(F)(F)F)CC1 [Example 10-2, 2,2,2-trifluoroethyl 4-(4-carbamoyl-3-(4-(trifluoromethylsulfonyl)phenylamino)-1H-pyrazol-1-yl)-4-(cyanomethyl)piperidine-1-carboxylate] | 0.5 nM | 4 nM |
| CC(C)(C)OC(=O)N1CCC(CC#N)(n2cc(C(N)=O)c(Nc3ccc(S(=O)(=O)C(F)F)cc3)n2)CC1 [Example 9-16, tert-butyl 4-[4-carbamoyl-3-({4-[(difluoromethyl)sulfonyl]phenyl}amino)-1H-pyrazol-1-yl]-4-(cyanomethyl)piperidine-1-carboxylate] | 0.09 nM | 0.6 nM |
| Cc1ccc(N2CCC(CC#N)(n3cc(C(N)=O)c(Nc4ccc(F)cc4)n3)CC2)cc1 [Example 3-39, 1-[4-(cyanomethyl)-1-(4-methylphenyl)piperidin-4-yl]-3-[(4-fluorophenyl)amino]-1H-pyrazole-4-carboxamide] | 4 nM | 117 nM |
| CC(C)(C)OC(=O)N1CCC(CC#N)(n2cc(C(N)=O)c(Nc3ccc(S(C)(=O)=O)cc3)n2)C1 (stereo not drawn) [Example 2-16, tert-butyl 3-(4-carbamoyl-3-{[4-(methylsulfonyl)phenyl]amino}-1H-pyrazol-1-yl)-3-(cyanomethyl)pyrrolidine-1-carboxylate] | 0.2 nM | 2 nM |
| N#CCC1(n2cc(C(N)=O)c(Nc3ccccc3)n2)CN(CC(F)(F)F)C1 [Example 19, 1-[3-(Cyanomethyl)-1-(2,2,2-trifluoroethyl)azetidin-3-yl]-3-(phenylamino)-1H-pyrazole-4-carboxamide] | 162 nM | 870 nM |
| CC(C)(C)OC(=O)N1CCC(CC#N)(n2cc(C(N)=O)c(Nc3cncc(F)c3)n2)CC1 [Example 9-35, tert-butyl 4-{4-carbamoyl-3-[(5-fluoropyridin-3-yl)amino]-1H-pyrazol-1-yl}-4-(cyanomethyl)piperidine-1-carboxylate] | 1 nM | 16 nM |
| N#CCC1(n2cc(C(N)=O)c(Nc3ccnc(F)c3)n2)CCN(Cc2cccc(C#N)c2)CC1 [Example 22-62, 1-[1-(3-cyanobenzyl)-4-(cyanomethyl)piperidin-4-yl]-3-[(2-fluoropyridin-4-yl)amino]-1H-pyrazole-4-carboxamide] | 0.9 nM | 33 nM |
| CC(C)(C)OC(=O)N1CCC(CC#N)(n2cc(C(N)=O)c(Nc3ccc(N4CCOCC4)nc3)n2)CC1 [Example 12-4, tert-butyl 4-(4-carbamoyl-3-{[6-(morpholin-4-yl)aphthal-3-yl]amino}-1H-pyrazol-1-yl)-4-(cyanomethyl)piperidine-1-carboxylate] | 0.8 nM | 3 nM |
| N#CCC1(n2cc(C(N)=O)c(Nc3ccnc(F)c3)n2)CCN(Cc2nc3ccccc3[nH]2)CC1 [Example 22-41, 1-[1-(1H-benzimidazol-2-ylmethyl)-4-(cyanomethyl)piperidin-4-yl]-3-[(2-fluoropyridin-4-yl)amino]-1H-pyrazole-4-carboxamide] | 18 nM | 641 nM |
| CC(C)(O)C1CC(CN2CCC(CC#N)(n3cc(C(N)=O)c(Nc4ccnc(F)c4)n3)CC2)C1 (stereo not drawn) [Example 22-24, 1-[4-(cyanomethyl)-1-{[3-(1-hydroxy-1-methylethyl)cyclobutyl]methyl}piperidin-4-yl]-3-[(2-fluoropyridin-4-yl)amino]-1H-pyrazole-4-carboxamide] | 100 nM | > 1500 nM |
| CN1CCC(OC(=O)N2CCC(CC#N)(n3cc(C(N)=O)c(Nc4ccccc4)n3)CC2)CC1 [Example 30-42, 1-methylpiperidin-4-yl 4-[4-carbamoyl-3-(phenylamino)-1H-pyrazol-l-yl]-4-(cyanomethyl)piperidine-1-carboxylate] | 41 nM | 798 nM |
| N#CCC1(n2cc(C(N)=O)c(Nc3ccnc(F)c3)n2)CCN(Cc2cccnn2)CC1 [Example 22-35, 1-[4-(cyanomethyl)-1-(pyridazin-3-ylmethyl)piperidin-4-yl]-3-[(2-fluoropyridin-4-yl)amino]-1H-pyrazole-4-carboxamide] | 6 nM | 145 nM |
| CC1(C)CC(CN2CCC(CC#N)(n3cc(C(N)=O)c(Nc4ccnc(F)c4)n3)CC2)CCO1 (stereo not drawn) [Example 22-16, 1-{4-(cyanomethyl)-1-[(2,2-dimethyltetrahydro-2H-pyran-4-yl)methyl]piperidin-4-yl}-3-[(2-fluoropyridin-4-yl)amino]-1H-pyrazole-4-carboxamide] | 5 nM | 122 nM |
